In patent US11299488B2, “Five membered-aminoheterocycle and 5,6-or 6,6-membered bicyclic aminoheterocyclic inhibitors of rock for the treatment of heart failure” (BRISTOL-MYERS SQUIBB COMPANY, priority 2017, dated 2022):

test system: rat stroke model; assay: not given; settings: in vivo; cited from earlier work

| Compound | infarct size and neurologic deficit |
| --- | --- |
| O=S(=O)(c1cccc2cnccc12)N1CCCNCC1 [fasudil] | reduce both the infarct size and neurologic deficit |

test system: congestive heart failure in Dahl salt-sensitive rats; assay: not given; settings: rat, in vivo; cited from earlier work

| Compound | ventricular hypertrophy, fibrosis and function |
| --- | --- |
| C[C@@H](N)[C@H]1CC[C@H](C(=O)Nc2ccncc2)CC1 [Example Y-27632, Y-27632] | improve ventricular hypertrophy, fibrosis and function |

test system: neointimal formation; assay: not given; settings: rats, similar model to balloon injury; cited from earlier work

| Compound | neointimal formation |
| --- | --- |
| C[C@@H](N)[C@H]1CC[C@H](C(=O)Nc2ccncc2)CC1 [Example Y-27632, Y-27632] | inhibited neointimal formation |

test system: spontaneously hypertensive rat, renal hypertensive rat and deoxycortisone acetate salt hypertensive rat models; assay: not given; settings: control rats; cited from earlier work

| Compound | blood pressure in control rats |
| --- | --- |
| C[C@@H](N)[C@H]1CC[C@H](C(=O)Nc2ccncc2)CC1 [Example Y-27632, Y-27632] | only a minor effect on blood pressure |

same assay, conditions: three rat models of hypertension; cited from earlier work

| Compound | blood pressure |
| --- | --- |
| C[C@@H](N)[C@H]1CC[C@H](C(=O)Nc2ccncc2)CC1 [Example Y-27632, Y-27632] | significantly decrease blood pressure |

test system: IL-1 beta-induced coronary stenosis; assay: not given; settings: long term treatment; cited from earlier work

| Compound | coronary constrictive remodeling | coronary stenosis |
| --- | --- | --- |
| O=S(=O)(c1cccc2cnccc12)N1CCCNCC1 [fasudil] | promote a regression of coronary constrictive remodeling | progressively reduce coronary stenosis |

target: ROCK2 (Homo sapiens (Human), UniProt O75116); assay: ROCK assay (Caliper LABCHIP peptide phosphorylation, 5 μM ATP); format: biochemical; settings: not given
Protocol: The effectiveness of compounds of the present invention as ROCK inhibitors can be determined in a 30 μL assay containing 20 mM HEPES, pH 7.5, 20 mM MgCl2, 0.015% Brij-35, 4 mM DTT, 5 μM ATP and 1.5 μM peptide substrate (FITC-AHA-AKRRRLSSLRA-OH) (SEQ ID No. 1). Compounds were dissolved in DMSO so that the final concentration of DMSO was <2%, and the reaction was initiated with Rho kinase variants. After incubation, the reaction was terminated by the addition of EDTA and the phosphorylated and non-phosphorylated peptides separated using a LABCHIP® 3000 Reader (Caliper Life Sciences). […] Compounds were tested in dose-response format, and the inhibition of kinase activity was calculated at each concentration of compound. The inhibition data were fit using a curve-fitting program to determine the IC50; i.e., the concentration of compound required to inhibit 50% of kinase activity. Representative Examples were tested in the ROCK assay described above and found having ROCK inhibitory activity. A range of ROCK inhibitory activity (IC50 values) of ≤50 μM (50000 nM) was observed. Table A below lists the ROCK IC50 values measured for the following examples.

Chain of ROCK2 (O75116 whole entry, species assumed): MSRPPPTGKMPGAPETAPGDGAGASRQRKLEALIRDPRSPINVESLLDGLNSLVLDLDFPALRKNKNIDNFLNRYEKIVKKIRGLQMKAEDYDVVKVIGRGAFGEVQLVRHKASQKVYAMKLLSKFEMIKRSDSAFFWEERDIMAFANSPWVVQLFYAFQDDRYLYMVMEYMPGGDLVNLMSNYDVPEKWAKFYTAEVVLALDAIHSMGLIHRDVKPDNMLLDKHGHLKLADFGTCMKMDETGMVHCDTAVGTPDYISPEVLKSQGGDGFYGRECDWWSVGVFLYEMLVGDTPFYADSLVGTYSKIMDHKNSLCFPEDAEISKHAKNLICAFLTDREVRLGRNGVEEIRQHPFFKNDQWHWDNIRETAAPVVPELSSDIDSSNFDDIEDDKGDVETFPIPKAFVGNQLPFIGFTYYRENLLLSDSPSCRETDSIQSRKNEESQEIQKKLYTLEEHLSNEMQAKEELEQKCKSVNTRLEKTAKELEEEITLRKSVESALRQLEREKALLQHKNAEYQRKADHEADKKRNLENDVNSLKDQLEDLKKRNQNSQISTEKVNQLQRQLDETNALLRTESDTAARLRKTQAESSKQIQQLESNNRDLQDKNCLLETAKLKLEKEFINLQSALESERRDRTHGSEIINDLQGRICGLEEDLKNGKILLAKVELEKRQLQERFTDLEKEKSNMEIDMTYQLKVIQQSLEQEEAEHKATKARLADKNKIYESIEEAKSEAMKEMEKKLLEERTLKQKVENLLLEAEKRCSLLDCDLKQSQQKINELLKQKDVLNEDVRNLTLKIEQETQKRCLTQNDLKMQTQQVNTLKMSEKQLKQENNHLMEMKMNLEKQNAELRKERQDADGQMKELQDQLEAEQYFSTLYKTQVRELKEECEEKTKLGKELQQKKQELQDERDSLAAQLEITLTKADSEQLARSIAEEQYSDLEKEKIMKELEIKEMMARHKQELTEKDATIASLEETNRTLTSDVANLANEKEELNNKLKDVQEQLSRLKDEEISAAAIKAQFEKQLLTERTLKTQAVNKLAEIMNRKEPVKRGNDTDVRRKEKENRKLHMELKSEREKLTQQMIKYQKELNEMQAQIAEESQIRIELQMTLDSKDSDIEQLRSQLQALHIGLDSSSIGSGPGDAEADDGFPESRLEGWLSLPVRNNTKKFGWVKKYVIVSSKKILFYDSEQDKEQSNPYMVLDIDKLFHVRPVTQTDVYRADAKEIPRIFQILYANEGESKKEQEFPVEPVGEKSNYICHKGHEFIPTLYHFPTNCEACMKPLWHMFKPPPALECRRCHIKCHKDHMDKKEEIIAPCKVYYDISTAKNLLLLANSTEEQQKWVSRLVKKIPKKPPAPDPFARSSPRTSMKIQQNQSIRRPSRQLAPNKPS

| Compound | IC50 [nM] |
| --- | --- |
| [H][C@]1(Oc2ncccc2C(N)=O)C[C@]2(C[C@@H](Nc3ccnc(N4CCC(C(F)(F)F)CC4)n3)C2)C1 (stereo partly drawn) [Example 65, 2-(((2S,4s,6S)-6-((2-(4-(trifluoro-methyl)piperidin-1-yl)pyrimidin-4-yl)amino)spiro[3.3]heptan-2-yl)oxy) nicotinamide] | 964 |
| [H][C@]1(Oc2ncccc2C(N)=O)C[C@]2(C[C@@H](Nc3ccnc(N4CCCC(F)(F)C4)n3)C2)C1 (stereo partly drawn) [Example 60, 2-(((2S,4s,6S)-6-((2-(3,3-difluoropiperidin-1-yl)pyrimidin-4-yl)amino)spiro[3.3]heptan-2-yl)oxy)nicotinamide] | 220 |
| NC(=O)c1cccnc1O[C@H]1C[C@@]2(C[C@H](Nc3nc(-c4ccccc4)cs3)C2)C1 (stereo partly drawn) [Example 13, 2-(((2S,4s,6S)-6-((4-phenylthiazol-2-yl)amino)spiro[3.3]heptan-2-yl)oxy)nicotinamide] | 96 |
| [H][C@]1(Oc2ncccc2C(N)=O)C[C@]2(C[C@@H](Nc3ccnc(-c4cccc(F)c4)n3)C2)C1 (stereo partly drawn) [Example 70, 2-(((2S,4s,6S)-6-((2-(3-fluorophenyl)pyrimidin-4-yl)amino)spiro[3.3]heptan-2-yl)oxy) nicotinamide] | 2240 |
| NC(=O)c1cccnc1OC1CC2(CC(Nc3ncc4cc(Br)ccc4n3)C2)C1 [Example 35, 2-(((2S,4s,6S)-6-((6-bromo-quinazolin-2-yl)amino)spiro[3.3]heptan-2-yl)oxy) nicotinamide] | 192 |
| [H][C@]1(Oc2ncccc2C(N)=O)C[C@]2(C[C@@H](Nc3nccc(N4CCC(F)(F)C4)n3)C2)C1 (stereo partly drawn) [Example 38, 2-(((2S,4s,6S)-6-((4-(3,3-difluoro-pyrrolidin-1-yl)pyrimidin-2-yl)amino)spiro[3.3]heptan-2-yl)oxy) nicotinamide] | 388 |
| [H][C@]1(Oc2ncccc2C(N)=O)C[C@]2(C[C@@H](Nc3nccc(-c4cnn(C)c4)n3)C2)C1 (stereo partly drawn) [Example 54, 2-(((2S,4s,6S)-6-((4-(1-methyl-1H-pyrazol-4-yl)pyrimidin-2-yl)amino)spiro[3.3]heptan-2-yl)oxy) nicotinamide] | 874 |
| NC(=O)c1cccnc1O[C@H]1C[C@@]2(C[C@H](Nc3nc(-c4ccc(F)cc4)cs3)C2)C1 (stereo partly drawn) [Example 12, 2-(((2S,4s,6S)-6-((4-(4-fluorophenyl)thiazol-2-yl)amino)spiro [3.3]heptan-2-yl)oxy)nicotinamide] | 846 |
| NC(=O)c1cccnc1O[C@H]1C[C@@]2(C[C@H](Nc3nnc(-c4ccc(F)c(F)c4F)o3)C2)C1 (stereo partly drawn) [Example 19, 2-(((2S,4s,6S)-6-((5-(2,3,4-trifluorophenyl)-1,3,4-oxadiazol-2-yl)amino)spiro[3.3]heptan-2-yl)oxy)nicotinamide] | 287 |
| [H][C@]1(Oc2ncccc2C(N)=O)C[C@@]2(C[C@H](Nc3nccc(N4CC[C@H](F)C4)n3)C2)C1 (stereo partly drawn) [Example 42, 2-(((2S,4r,6S)-6-((4-((S)-3-fluoro-pyrrolidin-1-yl)pyrimidin-2-yl)amino)spiro [3.3]heptan-2-yl)oxy) nicotinamide] | 2030 |

Further lines, results first:

| IC50 [nM] | Compound |
| --- | --- |
| 141 | NC(=O)c1cccnc1O[C@H]1C[C@@]2(C[C@H](Nc3ncc4cc(F)ccc4n3)C2)C1 (stereo partly drawn) [Example 29, 2-(((2S,4s,6S)-6-((6-fluoro-quinazolin-2-yl)amino)spiro [3.3]heptan-2-yl)oxy) nicotinamide] |
| 334 | [H][C@]1(Oc2ncccc2C(N)=O)C[C@]2(C[C@@H](Nc3ccnc(N4CCC(F)(F)CC4)n3)C2)C1 (stereo partly drawn) [Example 61, 2-(((2S,4s,6S)-6-((2-(4,4-difluoro-piperidin-1-yl)pyrimidin-4-yl)amino)spiro[3.3]heptan-2-yl)oxy) nicotinamide] |
| 268 | NC(=O)c1cccnc1O[C@H]1C[C@@]2(C[C@H](Nc3nc4ccc(Cl)cc4s3)C2)C1 (stereo partly drawn) [Example 3, 2-(((2S,4s,6S)-6-((6-chlorobenzo[d]thiazol-2-yl)amino)spiro[3.3]heptan-2-yl)oxy)nicotinamide] |
| 678 | [H][C@]1(Oc2ncccc2C(N)=O)C[C@]2(C[C@@H](Nc3nccc(NCC(C)(C)CO)n3)C2)C1 (stereo partly drawn) [Example 45, 2-(((2S,4s,6S)-6-((4-((3-hydroxy-2,2-dimethyl-propyl)amino)pyrimidin-2-yl)amino)spiro[3.3]heptan-2-yl)oxy) nicotinamide] |
| 489 | [H][C@]1(Oc2ncccc2C(N)=O)C[C@]2(C[C@@H](Nc3nccc(NC4CCC(F)(F)CC4)n3)C2)C1 (stereo partly drawn) [Example 44, 2-(((2S,4s,6S)-6-((4-((4,4-difluoro-cyclohexyl)amino)pyrimidin-2-yl)amino)spiro[3.3]heptan-2-yl)oxy) nicotinamide] |
| 17 | COc1ccc2c(N[C@H]3C[C@]4(C3)C[C@H](Oc3ncccc3C(N)=O)C4)nccc2c1 (stereo partly drawn) [Example 33, 2-(((2S,4s,6S)-6-((6-methoxy-isoquinolin-1-yl)amino)spiro [3.3]heptan-2-yl)oxy) nicotinamide] |
| 1560 | 2-(((2S,4r,6S)- 6-((2- ((S)-3- fluoro- pyrrolidin- 1- yl) pyrimidin-4- yl)amino) spiro[3.3] heptan-2- yl)oxy) nicotinamide [Example 69] |
| 733 | [H][C@]1(Oc2ncccc2C(N)=O)C[C@]2(C[C@@H](Nc3ccnc(N4CCC(F)CC4)n3)C2)C1 (stereo partly drawn) [Example 63, 2-(((2S,4s,6S)-6-((2-(4-fluoro-piperidin-1-yl)pyrimidin-4-yl)amino)spiro [3.3]heptan-2-yl)oxy) nicotinamide] |
| 68 | COc1ccc2c(N[C@H]3C[C@]4(C3)C[C@H](Oc3ncccc3C(N)=O)C4)nc(OC)cc2c1 (stereo partly drawn) [Example 32] |
| 890 | [H][C@]1(Oc2ncccc2C(N)=O)C[C@]2(C[C@@H](Nc3ccnc(N4CCCC(F)C4)n3)C2)C1 (stereo partly drawn) [Example 64, 2-(((2S,4s,6S)-6-((2-(3-fluoro-piperidin-1-yl)pyrimidin-4-yl)amino)spiro [3.3]heptan-2-yl)oxy) nicotinamide] |
| 398 | [H][C@]1(Oc2ncccc2C(N)=O)C[C@]2(C[C@@H](Nc3ccnc(N4CCC(F)(F)C4)n3)C2)C1 (stereo partly drawn) [Example 62, 2-(((2S,4s,6S)-6-((2-(3,3-difluoro-pyrrolidin-1-yl)pyrimidin-4-yl)amino)spiro[3.3]heptan-2-yl)oxy) nicotinamide] |
| 557 | [H][C@]1(Oc2ncccc2C(N)=O)C[C@]2(C[C@@H](Nc3nccc(-c4ccncc4)n3)C2)C1 (stereo partly drawn) [Example 46, 2-(((2S,4s,6S)-6-((4-(pyridin-4-yl)pyrimidin-2-yl)amino)spiro[3.3]heptan-2-yl)oxy)nicotinamide] |
| 1160 | NC(=O)c1cccnc1O[C@H]1C[C@@]2(C[C@H](Nc3nc(-c4ccccc4F)cs3)C2)C1 (stereo partly drawn) [Example 11, 2-(((2S,4s,6S)-6-((4-(2-fluorophenyl)thiazol-2-yl)amino)spiro [3.3]heptan-2-yl)oxy)nicotinamide] |
| 547 | NC(=O)c1cccnc1O[C@H]1CC2(C[C@H](Nc3nc4cc(F)c(Br)cc4s3)C2)C1 (stereo partly drawn) [Example 1, 2-(((2S,4s,6S)-6-((6-bromo-5-fluorobenzo[d]thiazol-2-yl)amino)spiro[3.3]heptan-2-yl)oxy)nicotinamide] |
| 537 | NC(=O)c1cccnc1O[C@H]1C[C@@]2(C[C@H](Nc3nnc(-c4ccc(F)cc4F)o3)C2)C1 (stereo partly drawn) [Example 20, 2-(((2S,4s,6S)-6-((5-(2,4-difluorophenyl)-1,3,4-oxadiazol-2-yl)amino)spiro[3.3]heptan-2-yl)oxy)nicotinamide] |
| 202 | [H][C@]1(Oc2ncccc2C(N)=O)C[C@]2(C[C@@H](Nc3nccc(N4CCC(F)(F)CC4)n3)C2)C1 (stereo partly drawn) [Example 37, 2-(((2S,4s,6S)-6-((4-(4,4-difluoro-piperidin-1-yl)pyrimidin-2-yl)amino)spiro[3.3]heptan-2-yl)oxy) nicotinamide] |
